US5155215A, “Polychelating agents for image and spectral enhancement (and spectral shift)” (priority 1990, dated 1992)

Key:
[1] = cited from earlier work
[2] = In vitro T1 relaxation of water protons (IBM PC 20 Minispectrometer, 20 MHz); format: physicochemical
Protocol: Microspheres were suspended at a concentration of 1 mg/ml by brief sonification. Because albumin microspheres have a fast-release (surface) component of Gd:DTPA as well as a controlled-release (interior) component, the spheres were washed, resuspended, and diluted serially for testing.
Thus, it was not necessary to wash and resuspend the materials prior to NMR testing.

[3] = In vivo NMR enhancement of normal rat tissues, image T1 and enhancement (0.35 Tesla Diasonics); parameters: species or system Sprague-Dawley rats
Excerpt: Sprague-Dawley rats were imaged using a 0.35-Tesla, Diasonics clinical MR imaging system and a 30-cm rf coil. Three clinically relevant pulse sequences were used: 1) spin-echo with a TR of 0.5 seconds (for T1-weighted images), 2) inversion-recovery (IR) (for T1-weighted images), and 3) spin-echo with a TR of 2.0 seconds (for T2-weighted images). Diasonics software was used to calculate the area-averaged tissue intensities before and after injection of contrast agents. Dual pulse sequences (spin-echo, with TR's of 0.5 and 1.5 seconds or 1.0 and 2.0 seconds) were also used to calculate the in vivo T1 relaxation times. At the conclusion of imaging, the liver, spleen and kidneys were excised and their T1 (IR) and T2 (Carr-Purcell-Meiboom-Gill) relaxation times were determined at 37° C., using an IBM pC20 Minispectroneter. For these in vitro experiments, uninjected rats were used in place of preinjection controls.

[4] = T1 of freshly excised rat spleens after injection; format: in vivo, Sprague-Dawley rats
Excerpt: Post-contrast images were obtained serially beginning immediately after the i.v. injection of contrast agents and continuing for several hours thereafter.

[5] = Enhanced T1-weighted blood flow images in cardiac chambers; format: in vivo, rats; conditions: i.v., rat heart chambers
Protocol: Gd:DTPA-dextran microspheres (at 0.03 mmoles Gd/kg) were injected i.v. at time zero into Sprayer-Dawley rats and images were obtained immediately and serially each 5 minutes×4 (spin-echo, multi-echo, TR=0.5 & 1.5).

[6] = Liver T1 decrease / liver image enhancement, effective dose; format: in vivo, mice and rats; conditions: 30 min
[7] = Whole-organ liver T1 after albumin microspheres; format: in vivo, CBA mice; conditions: 0.1 mmol/kg Gd, 30 min
Protocol: Microspheres (Gd:DTPA:dimeglumine:albumin) were tested in vivo by injecting them intravenously into 25 gm CBA mice (2 animals per group), allowing 30 minutes for uptake and sequestration by liver Kupffer cells, sacrificing the mice, and testing the excised organs. […] Radioisotope was quantified in a standard gamma counter.
The T1-weighted proton relaxation times of mouse livers were quantified by determining the whole-organ T1 relaxation time in a 20 MHz NMR spectrometer.

[8] = Proton T1 relaxation times in mouse organs (DEAE-dextran agents); format: in vivo, CBA mice
Protocol: Test materials were injected i.v. into 25 gm CBA mice. At 30 min the mice were sacrificed by decapitation (exsanguination) and the excised livers and kidneys assessed for changes in proton T1 relaxation times (20 MHz; IR pulse sequence). Doses of test materials were made equivalent based on in vitro potency (ID50 analysis).

[9] = MR imaging and proton T1 relaxation times in rats (DEAE-dextran agents); format: in vivo, Sprague-Dawley rats; conditions: Gd 0.30 (polymer, dimeglumine) or 0.15 (microspheres) mmol/kg
Protocol: Test materials were injected intravenously into 500 gm Sprague-Dawley rats. at approximately 30 minutes, the rats were placed in the head coil of a 0.35 Tesla clinical imaging device (Diasonics Corp.), and T1-weighted images (using both a spin-echo pulse sequence at TR's of 0.5, 1.5 and 2.0, and an inversion recovery sequence) were obtained on image slices of 0.5 cm thickness taken through the liver and kidneys. T1 relaxation times were determined from the TR=0.5 and 2.0 data using area-averaging of signal intensities and a proprietary software program for calculations. At the completion of imaging, the rats were sacrificed by decapitation (exsanguination). Their livers, kidneys and spleens were excised, tested for in vitro correlations with the in vivo changes in proton T1 relaxation times and then placed in buffered formalin fixative for histopathologic evaluation.

[10] = cited from earlier work; remark: listed apart in the source
[11] = tested on: human brain tumors; renal tumors; conditions: cited from earlier work
[12] = tested on: 7777-strain Morris hepatoma; test: In vivo NMR image enhancement of a primary liver tumor (hepatoma); conditions: after injection
Protocol: After two to three weeks the local tumors had reached an average diameter of 0.5 and 1.0 cm. The rats were then imaged both before and after i.v. injections of Gd-DTPA or microsphere Gd-DTPA. MR imaging was performed in a 30cm rf coil with a 0.35 Tesla, Diasonics clinical MRI system (as described above). Post-contrast images were obtained serially beginning immediately after injection and continuing for several hours thereafter.

[13] = precipitation at body pH; cited from earlier work

## O=C(O)CN1CCN(CC(=O)O)CCN(CC(=O)O)CCN(CC(=O)O)CC1 [DOTA, 1,4,7,10-tetraazacyclododecane-N,N',N"-tetraacetic acid]
[1]; wide range of Larmor frequencies
  Relaxivity relative to Gd-DTPA: approximately 2 times greater

## CNC[C@H](O)[C@@H](O)[C@H](O)[C@H](O)CO.CNC[C@H](O)[C@@H](O)[C@H](O)[C@H](O)CO.O=C([O-])CN(CCN(CC(=O)[O-])CC(=O)O)CCN(CC(=O)[O-])CC(=O)O.[Gd+3] [Gd:DTPA dimeglumine]
[2]; Gd, read-out: ID50 as molar concentration of Gd
  IC50: 90 µM
[2]; T1 to 50% of phosphate-buffered saline
  ID50 (total weight): 0.084 mg/mL
[2]; total material
  Material concentration required to produce a 50% decrease in the T1 of water protons: 90 µg/mL
[3]; kidney, 30 min, image T1
  % Decrease in T1, kidney (30 min post vs. pre): 55.7%
[3]; liver
  Time after which all liver enhancement was lost: 50 min
[3]; liver, 30 min, image T1
  % Decrease in T1, liver (30 min post vs. pre): 24.6%
[3]; visual inspection
  Bone marrow image enhancement: not Gd:DTPA dimeglumine
[4]
  % Decrease in T1 of Spleen (35 min post vs. pre): 14.4%
[5]
  Enhancement of blood flow images: almost completely ineffective
[6]
  Change in liver T1's at the usual 30-minute imaging interval: minimal changes in liver T1's
[7]
  Liver T1, % of Control: 98.5%
[7]; saline 332
  Liver T1: 327 ms
[8]; kidney, 30 min, 0.23 mmol/kg DEAE agents, 0.47 mmol/kg Gd:DTPA dimeglumine, control 385 msec
  T1 (% of control), kidney: 24%
[8]; liver, 30 min, 0.23 mmol/kg DEAE agents, 0.47 mmol/kg Gd:DTPA dimeglumine, control 330 msec
  T1 (% of control), liver: 83%
[8]; mouse liver, very high doses
  Effectiveness at decreasing the T1 of liver: relatively ineffective
[9]; excised kidney, control 492 msec
  T1 (% of control), kidney, in vitro: 25%
[9]; excised liver, control 275 msec
  T1 (% of control), liver, in vitro: 88%
[9]; excised spleen, control 464 msec
  T1 (% of control), spleen, in vitro: 86%
[9]; kidney, imaging
  T1 (% of control), kidney, in vivo: 57%
[9]; liver, imaging
  T1 (% of control), liver, in vivo: 83%
[10]; Weinman et al.
  Bloodstream clearance (1/2): 20 min
  Quantity cleared by the kidneys: > 90%
[10]; in vivo
  Imaging window: ca. 30 minutes
  Number of optimal images after each injection: ca. 2
[1]; typically 15 Mhz
  Relaxivity at higher proton Larmor frequencies: marked decrease in relaxivity
[11]; human, in vivo
  Enhancement of renal tumors: enhanced satisfactorily
[11]; preliminary clinical results
  Enhancement of human brain tumors: almost all human brain tumors undergo significant enhancement
[12]
  Time by which tumor contrast was significantly reduced: 1.5 h

## [Gd] [Gd, gadolinium]
[1]; Gd, seven unpaired 4f electrons
  Paramagnetic dipole: 7.9 Bohr magnetons
[13]
  Toxicity of the free form: quite toxic
